Assay results as given in the METLIN SMRT retention time set (Domingo-Almenara et al. 2019).

Assay: gradient 5% acetonitrile 3 min, to 50% in 2 min, to 85% in 15 min, held 3 min, 100 µL/min
Settings: column: Zorbax Extend-C18 2.1 x 50 mm; eluents: water / acetonitrile, 0.1% formic acid
How it was run: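 Over 3 months, pure standards in mixtures of ~100 molecules were run by HPLC coupled to a quadrupole time-of-flight mass spectrometer in positive and negative ionization mode. The column was a Zorbax Extend-C18 (2.1 × 50 mm, 1.8 μm) at 100 μL/min, eluted with water and acetonitrile each holding 0.1% formic acid, with 40 μL dead and 900 μL dwell volumes. Retention time was determined from adduct peaks chosen by software and checked manually.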

SMILES	RP-LC retention time [s]
CCCN1CCN(CCCNC(=O)CCc2nc(N3CCCCC3)c3c(CC)noc3n2)CC1	598
O=C(Cc1csc2nc(-c3ccccc3)cn12)Nc1ccc(Cl)cc1	868
Cc1ccc(C(=O)N2C[C@@H](Oc3ccccc3)C[C@H]2C(=O)NC2CC2)s1	790
O=C(NCC1CCS(=O)(=O)C1)c1cc(-c2cccs2)[nH]n1 (configuration not stated)	607
COc1ccc(-c2cc(N3CCC(NC(=O)c4ccc(C#N)cc4)C3)n[nH]2)cc1 (configuration not stated)	685
Cc1cc(C)c(Cn2cnc3ccccc32)c(C)c1	611
Clc1ccccc1-c1ccc(CNc2ncn[nH]2)o1	676
Cc1ccc(-n2nc(C(=O)N3CCN(c4ccccn4)CC3)c3c4ccccc4n(C)c3c2=O)cc1	705
O=C1CC(c2noc(-c3cccc(OC(F)(F)F)c3)n2)CN1c1ccc(F)c(Cl)c1 (configuration not stated)	1210
COc1ccc(N2CC(c3noc(-c4cccc(F)c4)n3)CC2=O)cc1OC (configuration not stated)	847
CC(=O)N(C1CCOCC1)C1CCN(C(=O)Nc2ccccc2)CC1	655
COc1ccc(S(=O)(=O)N2CCCC(C(=O)Nc3cccc(Br)c3)C2)cc1Cl (configuration not stated)	1110
CCc1noc(NC(C)=O)c1-c1ccc(C)c(S(=O)(=O)Nc2cc(Cl)ccc2C)c1	891
COCCC(=O)Nc1cnc(-c2ccc(C(F)(F)F)cc2)nc1	895
Cc1cc(C)cc(-c2nc(C3CC(=O)N(c4ccc(F)cc4)C3)no2)c1 (configuration not stated)	1060
Cn1nc(C2CCCN(C(=O)c3ccoc3)C2)n(C2CCCC2)c1=O (configuration not stated)	672
CCOc1ccc(CNC(=O)C2CCCN(c3ccc(=O)n(-c4ccc(C)c(Cl)c4)n3)C2)cc1 (configuration not stated)	830
O=C(CCc1conc1-c1ccc(F)cc1)NCC1CCCCC1	996
O=C(NCc1ccc(N2CCOCC2)cc1)C1CCCN(c2cnc3nccnc3c2)C1 (configuration not stated)	728
COc1cc(CN(C(=O)c2ccc(OC(C)C)cc2)C2CCS(=O)(=O)C2)cc(OC)c1OC (configuration not stated)	868
CCOC(=O)CC(=O)CSc1nc(-c2ccccc2)ns1	993
O=C(Cn1ncc2c(N3CCN(c4ccccn4)CC3)ncnc21)Nc1ccc(F)cc1Cl	650

SMILES	RP-LC retention time [s]
CCCOC(=O)c1cccc(Nc2nc(-c3cccnc3)nc3ccccc23)c1	889
Cc1ccc(Nc2c(-c3ccc(N4CCOCC4)cc3)nc3ncccn23)cc1Cl	751
CCOC(=O)c1cc(S(=O)(=O)N2CCN(c3ccccn3)CC2)[nH]n1	598
Cc1ccc(NS(=O)(=O)c2cc(-c3[nH]ncc3C(=O)N3CCCC3)oc2C)cc1Cl	803
COc1ccc(-n2ncc3c(=O)n(Cc4nc(-c5ccc(Br)cc5)no4)cnc32)cc1	1090
O=C1N(C2CCN(Cc3ccccn3)CC2)C(c2ccncc2)C12CCCCC2 (configuration not stated)	556
O=C(CCc1nc(-c2ccc(N3CCCC3)cc2)no1)N1CCC2(CC1)OCCO2	945
CCOCc1nc(C2CCCN2S(=O)(=O)c2cccc3nsnc23)no1 (configuration not stated)	836
COCCOc1ccc2c(c1)ncn2-c1ccc2cccc(N3CCC(N)CC3)c2n1	645
Cc1nn2c(CNS(=O)(=O)c3cccc(F)c3)c(-c3ccccc3)nc2s1	852
COc1ccc(Nc2nc(N3CCN(CCO)CC3)nc3c2C(=O)CCC3)cc1	637
O=C(CSc1cc(N2CCN(c3ccccc3F)CC2)ncn1)NCc1ccccc1	1110
O=C(CN1C(=O)C(C(=O)N2CCCC2)Sc2ccccc21)NCCc1ccccc1 (configuration not stated)	898
CCOc1ccc(-c2noc(Cn3cnc4c(cnn4-c4ccc(CC)cc4)c3=O)n2)cc1OC	1070
Cc1ccc2c(Nc3cc(F)ccc3C)c(-c3nc(C)no3)cnc2n1	784
CCOC(=O)Cc1ccc(NC(=O)N2CCC3(CC2)Nc2cc(F)ccc2-n2cccc23)cc1	1000
O=C(Cn1nc(Cc2ccncc2)c2ccccc2c1=O)N1CCOCC1	787
CCOC(=O)c1cnc2nc(C)ccc2c1Nc1ccccc1	673
Cc1c(CNCc2cccnc2)c(C(=O)O)c(C)n1Cc1cccc(F)c1	618
CCN(c1cccc(C)c1)S(=O)(=O)c1cc(-c2[nH]ncc2C(=O)N(C)C)oc1C	792
CN1CCC(NC(=O)C2CCc3sc(C(=O)N4CCOCC4)cc3C2)CC1 (configuration not stated)	606

Second part, the compound after the results:

RP-LC retention time [s]	SMILES
645	CNC(=O)C1CCCN(c2nc3ncn(CC(=O)Nc4cccc(F)c4)c(=O)c3s2)C1 (configuration not stated)
594	COc1ccc(NC(=O)N2CCN(c3cnn4c(C)nnc4c3)CC2)cc1
973	CC(C)N1C(=O)C(C)(C(=O)Nc2ccccc2F)Oc2cccnc21 (configuration not stated)
746	COc1ccc(-c2nc3cccnc3n2C2CCN(C(=O)Nc3cccc(OC)c3)C2)cc1 (configuration not stated)
689	CCc1ccc(CN2CCn3c(nn(C)c3=O)C2)cc1
648	CN(C)CCNC(=O)C1CCCN(c2ccc(Sc3ccc(Br)cc3)nn2)C1 (configuration not stated)
511	COCc1ncc(C)n1CC1CN(C(=O)c2ocnc2C)C1
782	COc1ccc(OCC(=O)Nc2ccc3c(c2)N(C(C)=O)CCC3)cc1
766	CC(C)n1cnc(S(=O)(=O)N2CCCC(C(=O)N3CCN(c4ccccc4)CC3)C2)c1 (configuration not stated)
944	COc1ccc(Cl)cc1NC(=O)CSc1ccc(-c2ccco2)nn1
845	COC(=O)c1cnn2c(C)c(Cc3ccc(F)cc3)c(C)nc12
750	CCOc1ccc(C(=O)NC(C(=O)Nc2nc3ccccc3[nH]2)C(C)CC)cc1 (configuration not stated)
885	O=C(NCc1cccc(Br)c1)C1CCN(c2nnc(-c3ccccc3)o2)CC1
790	Cc1c(CC(=O)N2CCN(c3cccc(Cl)c3)CC2)c2c(=O)n(C)c(=O)n(C)c2n1C
609	CCNC(=O)c1ccc2c(c1)CCN2C(C)=O
519	CC(C)C(=O)Nc1nnc2n1CCS2
681	CN(C(=O)Nc1ccccc1)C1CCc2nn(CC3CC3)c(=O)n2CC1 (configuration not stated)
592	Cn1ncc2c(N3CCSCC3)nc(C(=O)NCc3ccccn3)nc21
1080	Cc1ccc2c(c1)N(CCC(C)C)N=C(C(=O)N1CCCCC1)S2(=O)=O
611	CCCCN(CC)CCCNC(=O)C1CCCN(c2ncnc3c2nc2n3CCCCC2)C1 (configuration not stated)
646	Cc1nnc(NC(=O)c2cc(C3CC3)n(C3CCS(=O)(=O)C3)n2)s1 (configuration not stated)
798	Cc1ccc(-c2cn3c(CC(=O)NC4CCCC4)csc3n2)cc1C
616	CCOCC(=O)N1CCC(Oc2nccnc2N(C)C)C1 (configuration not stated)
1000	CCn1c(=O)c(N2CCN(C(=O)Nc3ccc(Br)cc3F)CC2)nc2cccnc21
